Reference: the supplement of paper PMC10307832

Tests used:
Test in all cases: relative viability (nuclei count vs DMSO), 5 days (fraction); higher = more cells survive
[1] = compound: CNC(=O)c1cc(Oc2ccc(NC(=O)Nc3ccc(Cl)c(C(F)(F)F)c3)cc2)ccn1 [Sorafenib] + Cc1nc(Nc2ncc(C(=O)Nc3c(C)cccc3Cl)s2)cc(N2CCN(CCO)CC2)n1 [Dasatinib] (partner 0.075 µM)
In short: (§1)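 Relative viability divides the nuclei count in treated wells by that in vehicle wells. Lung cancer cell lines were seeded in 1536-well plates, dosed by pin tool the next day, and fixed and stained after 5 days in one step with final 0.05% Triton X-100, 1% formaldehyde and 1 ug/ml Hoechst. Dosing was a single drug or a fixed anchor-drug dose plus five library-drug doses (not always all listed) in √10 steps, and values are medians of duplicate plates imaged at 4×.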

[2] = compound: CNC(=O)c1cc(Oc2ccc(NC(=O)Nc3ccc(Cl)c(C(F)(F)F)c3)cc2)ccn1 [Sorafenib] + COc1cccc2cc(-c3nc([C@H]4CC[C@H](C(=O)O)CC4)n4ncnc(N)c34)[nH]c12 [OSI-027] (partner 0.5 µM)
In short: as §1

[3] = compound: CNC(=O)c1cc(Oc2ccc(NC(=O)Nc3ccc(Cl)c(C(F)(F)F)c3)cc2)ccn1 [Sorafenib] + C[C@@H](Oc1cc(-c2cnn(C3CCNCC3)c2)cnc1N)c1c(Cl)ccc(F)c1Cl [Crizotinib] (partner 1 µM)
In short: as §1

[4] = compound: CNC(=O)c1cc(Oc2ccc(NC(=O)Nc3ccc(Cl)c(C(F)(F)F)c3)cc2)ccn1 [Sorafenib] + C[C@]1(O)C[C@@H](c2nc(-c3ccc4ccc(-c5ccccc5)nc4c3)c3c(N)nccn32)C1 [Linsitinib] (partner 1 µM)
In short: as §1

[5] = compound: CNC(=O)c1cc(Oc2ccc(NC(=O)Nc3ccc(Cl)c(C(F)(F)F)c3)cc2)ccn1 [Sorafenib] + Cc1cc(Nc2cc(N3CCN(C)CC3)nc(Sc3ccc(NC(=O)C4CC4)cc3)n2)n[nH]1 [Tozasertib] (partner 0.1 µM)
In short: as §1

| Cell Line | relative viability ([1]; first compound 0.08 µM) | relative viability ([1]; first compound 0.253 µM) | relative viability ([1]; first compound 2.53 µM) | relative viability ([1]; first compound 8 µM) | relative viability ([2]; first compound 0.08 µM) | relative viability ([2]; first compound 2.53 µM) | relative viability ([2]; first compound 8 µM) | relative viability ([3]; first compound 0.08 µM) | relative viability ([3]; first compound 0.253 µM) | relative viability ([3]; first compound 2.53 µM) | relative viability ([3]; first compound 8 µM) | relative viability ([4]; first compound 0.08 µM) | relative viability ([4]; first compound 0.253 µM) | relative viability ([4]; first compound 2.53 µM) | relative viability ([4]; first compound 8 µM) | relative viability ([5]; first compound 0.08 µM) | relative viability ([5]; first compound 0.253 µM) | relative viability ([5]; first compound 2.53 µM) | relative viability ([5]; first compound 8 µM) | relative viability ([2]; first compound 0.253 µM) |
| --- | --- | --- | --- | --- | --- | --- | --- | --- | --- | --- | --- | --- | --- | --- | --- | --- | --- | --- | --- | --- |
| PC-14 | 0.302 | 0.256 | 0.276 | 0.185 | 0.96 | 0.745 | 0.321 | 0.935 | 1 | 0.967 | 0.533 | 1.03 | 0.96 | 0.918 | 0.756 | 0.588 | 0.555 | 0.593 | 0.577 |  |
| NCI-H727 | 0.481 | 0.453 | 0.399 | 0.232 | 0.688 | 0.619 | 0.508 | 0.979 | 0.797 | 0.706 | 0.357 | 0.29 | 0.226 | 0.33 | 0.231 | 0.643 | 0.638 | 0.555 | 0.487 | 0.542 |
| HCC-366 | 0.626 | 0.551 | 0.639 | 0.518 | 0.951 | 0.866 | 0.327 | 0.705 | 0.464 | 0.549 | 0.356 | 0.66 | 0.628 | 0.732 | 0.463 | 0.109 | 0.083 | 0.054 | 0.0297 | 0.937 |
| NCI-H2085 | 0.311 | 0.271 | 0.26 | 0.237 | 0.934 | 0.704 | 0.396 | 0.938 | 1.01 | 0.965 | 0.717 | 0.962 | 0.924 | 1.07 | 0.728 | 0.849 | 0.833 | 0.611 |  | 0.544 |
| PC-3 [JPC-3] | 1.03 | 0.936 |  |  | 0.805 | 0.692 | 0.617 | 0.978 | 0.957 | 0.985 |  | 0.951 | 0.981 | 1.01 | 0.949 | 0.879 | 0.846 | 0.881 | 0.823 | 0.722 |
| HCC-78 | 0.46 | 0.393 | 0.549 | 0.397 | 0.39 | 0.431 | 0.384 | 0.394 | 0.361 | 0.483 | 0.507 | 0.562 | 0.42 | 0.457 | 0.573 | 0.391 | 0.371 | 0.492 | 0.493 | 0.304 |
| NCI-H2126 | 0.735 | 0.533 | 0.652 | 0.501 | 0.824 | 0.712 | 0.703 | 0.998 | 0.984 | 1.09 | 0.962 | 0.754 | 0.706 | 0.745 |  | 0.93 | 0.842 | 0.866 |  | 0.665 |
| NCI-H2347 | 0.74 | 0.351 | 0.351 | 0.308 | 0.48 | 0.458 | 0.391 | 0.796 | 0.559 | 0.491 | 0.525 |  | 0.921 | 0.973 | 0.999 | 0.646 | 0.599 | 0.509 | 0.426 | 0.378 |
